Results from paper PMC12215950 (Chemical Science, 2025).

Target: T1, mitochondrial branched-chain aminotransferase (mBCAT2) (Mus musculus, UniProt O35855)
T1 sequence (O35855 28-393): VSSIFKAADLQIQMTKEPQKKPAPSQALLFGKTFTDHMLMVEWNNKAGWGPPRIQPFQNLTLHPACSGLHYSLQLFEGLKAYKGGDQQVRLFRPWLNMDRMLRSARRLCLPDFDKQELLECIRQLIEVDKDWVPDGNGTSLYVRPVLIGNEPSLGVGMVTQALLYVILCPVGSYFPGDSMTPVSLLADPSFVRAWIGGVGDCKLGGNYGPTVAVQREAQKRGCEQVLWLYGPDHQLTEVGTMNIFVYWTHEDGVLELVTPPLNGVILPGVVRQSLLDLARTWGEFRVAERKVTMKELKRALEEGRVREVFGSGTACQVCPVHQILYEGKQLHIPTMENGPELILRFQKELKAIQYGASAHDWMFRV
Test: LC-MS transamination assay with Michaelis–Menten kinetics
Assay type: biochemical

C=C(CC(=O)O)C(=O)O [ITA, itaconate]
Ki: 15.3 mM
